The record followed here is patent US11013236B2, “Pesticidal Flavobacterium strain and bioactive compositions metabolites and uses” (Marrone Bio Innovations, Inc., priority 2012, dated 2021).

In one assay the test system is nematodes (J2's). The experiment in a line: SAR motility bioassay of synthetic analogues. Format: in vivo. The conditions noted are these: 3 μL at 20 mg/ml into 50 μl with approximately 300 J2's, 24 hours, then 24 hour recovery on 1.5% water agar; average of 6 repetitions. As for the experimental part: To quickly understand which part of the 1-(4-hydroxyphenyl) pent-1-en-3-one (1) molecule (polyketide) plays a crucial role on the nematicidal activity, a series of structural analogues were synthesized and evaluated using motility test. This bioassay serves to distinguish the differences in efficacy by measuring the recovery and the mobility of the nematodes after being exposed to any given compound with 6 repetitions per treatment. This bioassay involves the following procedure: 3 μL (at 20 mg/ml) of the sample are dispensed into 50 μl of approximately 300 J2's in a 96-well plastic cell-culture plate. After 24 hours, 100-150 of the treated J2's were transferred into 6-well plates that contain 1.5% water agar. After drying of the test sample on the agar, the initial drop was marked and initial counts of the J2's were carried out. After another 24 hour recovery period, the immobilization of the juveniles were measured by counting the number of J2's that moved from the initial circle and an average of the 6 repetitions were calculated to get the percent immobilization of each sample.

The subject of assay [1] is M. incognita. The experiment in a line: Greenhouse cone test of polyketide 1, tomato (cv. UC82) as host. Format: in vivo, Meloidogyne incognita. The note with it: compared to water control. The method, then: The nematicidal activity of polyketide 1 (MW 176 compound) against root-knot nematodes was further assessed in greenhouse in cone tests using M. incognita and tomato (cv. UC82) as a host. The tomato seeds were germinated in vermiculate and 3-week-old seedlings were transferred to the cones containing mixture of sand and top soil (1:1). Two weeks after transplanting, tomato plants were treated with the samples. […] Four different concentrations (100, 10, 1, & 0.1 μg/mL) of the polyketide prepared in 4% methanol (MeOH) were dosed as 10 mL of soil drench into each pot. Each treatment was tested in 5 replicates. Following the drench each pot was inoculated with 1000 nematode eggs suspended in 1 mL of water. The dosing of the product was repeated after two weeks. Three weeks later, the inoculation test was terminated and the following parameters were scored: number of galls/root, gall index and fresh top weight.

Assay [2] concerns M. incognita. In words: In vitro 96-well plate bioassay of purified peaks of fraction 3. The conditions noted are these: 24 hour at 25° C. Format: in vivo, Meloidogyne incognita. As for the experimental part: (§1) Once the purification of fraction 3 is complete and all of the desired peaks/compounds are collected as described above, each peak is tested in an in vitro 96-well plastic cell-culture plate extract bioassay in order to identify the peak/s that contain the desired active metabolite/s.
(§2) 15-20 nematodes in a […] water solution are exposed to […] of a 20 mg/ml peak concentrate (1.13 mg/ml total exposure) for a 24 hour period at 25° C. Once the incubation period is completed, results are recorded based on a visual grading of immotility of the J2s in each well treated with H492 purified peaks of H1 to H39, plus H29-A derived from fraction 3, each treatment is tested in four replicates. Three controls are included in each trial; one positive control (1% avid). and two negative controls (DMSO and water). Trial 1 (T1) was carried out using the method described above with M. hapla, trial 2 and 3 (T2 and T3) were carried out using the latter method with M. incognita (FIG. 22).

The subject of assay [3] is nematode juveniles (J2) of M. incognita (Monsanto strain). The experiment in a line: Dose response % immotility for synthesized polyketide, 6-well plate immobility bioassay. Format: in vivo, Meloidogyne incognita. The conditions noted are these: tested 0.14-1.69 mg/mL in DMSO; 24 h exposure, 24 h on water agar; FIG. 23. The method, then:
The synthetic polyketide (MW 176) was tested at several doses (concentrations tested were 0.14, 0.28, 0.42, 0.56, 0.84, 1.13, 1.69 mg/mL of polyketide in DMSO) in the 6-well plate immobility bioassay to find the optimal dose of this compound needed in order to detect nematicidal activity. In this particular assay the nematode juveniles (J2) of M. incognita (Monsanto strain) were first exposed to the tested samples in 96-well plate: 50 μl of water containing approximately 300 J2 were mixed with 3 μl of polyketide sample or controls (avid (2%) as positive control or DMSO and water as negative controls, respectively. After 24 h incubation, 20 μl of J2 suspension from each well was transferred into the wells of 6-well plates filled with water agar (3 mL of 1% agar per each well). The plates were left open for 10-15 min to allow the solutions to dry out. Afterwards, circles were drawn around the J2 suspension and initial numbers of J2 inside the circles were counted under the stereomicroscope. The plates were incubated for another 24 h and the numbers of J2 that remained immotile (i.e. were still present inside the circles) were counted using stereomicroscope. The % of nematode immotility was expressed as: [(number of immotile nematodes after 24 h incubation/initial number of J2)*100%].

In assay [4] the test system is Avidovorax avenae subsp. citrulli. In words: Antimicrobial agar disc assay. Format: cell-based. As for the experimental part:
(§3) The pure 1-(4-hydroxyphenyl) pent-1-en-3-one (1) “polyketide MW 176” was tested against various microbial pathogens using agar disc assay.

A further assay relates to Xanthomonas campestris. In words: Antimicrobial agar disc assay. Format: cell-based. The method, then: as §3
A further assay relates to Bacillus cereus. The experiment in a line: Antimicrobial agar disc assay. Format: cell-based. As for the experimental part: as §3
A further assay deals with Erwinia amylovora. The experiment in a line: Antimicrobial agar disc assay. Format: cell-based. The method, then:
as §3

The next assay has as its system M. hapla. In words: In vitro 96-well plate bioassay of purified peaks of fraction 3. The conditions noted are these: 24 hour at 25° C. Format: in vivo, Meloidogyne hapla. As for the experimental part: as §1, §2

Molecules are shown by their SMILES.

Regarding `CCCCC1CCC(=O)O1` (stereo not shown) [SAR-34, γ-octalactone], in the assay on nematodes (J2's), the Average % immobility was found to be 21%. On the same count and under the same terms, as for `CC(C)CC(=O)/C=C/c1ccc(O)cc1` [SAR-10, (E)-1-(4-hydroxyphenyl)-5-methylhex-1-en-3-one], the figure is 96%. Take `CC(=O)/C=C/c1ccccc1O` [SAR-12, (E)-4-(2-hydroxyphenyl)but-3-en-2-one]: the Average % immobility in the assay on nematodes (J2's) was found to be 99%. `O=C(/C=C/c1cccc(O)c1)c1ccccc1` [SAR-22, (E)-3-(3-hydroxyphenyl)-1-phenylprop-2-en-1-one]: in the assay on nematodes (J2's), the Average % immobility is 70%.

In the assay on nematodes (J2's), `CC(C)C=O` [SAR-40, iso-butyraldehyde] gave an Average % immobility of 79%.

Regarding `CCCCCCCCCC(C)=O` [SAR-37, 2-undecanone], the Average % immobility with nematodes (J2's) was determined as 67%.

In turn, `CCCCCCC(C)=O` [SAR-35, 2-octanone] yielded an Average % immobility with nematodes (J2's) of 33%.

Turning to `CC/C=C\CC/C=C/C(C)=O` [SAR-16, (3E,7Z)-deca-3,7-dien-2-one], the Average % immobility with nematodes (J2's) was determined as 94%.

Consider `CC/C=C/C(=O)c1ccccc1` [SAR-15, (E)-1-phenylpent-2-en-1-one], for which the Average % immobility with nematodes (J2's) is on record as 20%.

`CCC(=O)/C=C/c1ccc(O)cc1` [Compound 1, 1-(4-hydroxyphenyl) pent-1-en-3-one]: the gall index entry is reported as “significantly reduced” in the assay on M. incognita [1] (0.1 mg/ml, 10 mL soil drench, 1st test) and “significantly reduced” in the assay on M. incognita [1] (all tested dilutions, 2nd test). In addition, in the assay with M. incognita [1] (0.001 & 0.01 mg/ml, 10 mL soil drench, 1st test), the “gall index and galls per root” value is on record as “significantly reduced”. For the same compound, the “Potency in in vitro assay (immotility of J2s)” value in the assay with M. incognita [2] and in the assay on M. hapla was “confirmed” each time. Further, the “optimal range required for good nematicidal activity (% immotility)” value in [3] is given as at least 0.5 mg/mL. Moreover, the antimicrobial activity result was “moderate activity” in assay [4], “moderate activity” in the assay with Xanthomonas campestris, “moderate activity” with Bacillus cereus and “potent activity” with Erwinia amylovora. Consider `CC(=O)/C=C/c1ccccc1` [SAR-1, (E)-4-phenylbut-3-en-2-one], for which the Average % immobility in the assay with nematodes (J2's) came out at 99%. For the compound `CC(=O)/C(C)=C/c1ccccc1O` [SAR-14, (E)-4-(2-hydroxyphenyl)-3-methylbut-3-en-2-one], the Average % immobility in the assay on nematodes (J2's) was determined as 97%.

In the assay with nematodes (J2's), `O=Cc1cccc(O)c1` [SAR-29, 3-hydroxybenzaldehyde] yielded an Average % immobility of 70%. On the same count and under the same terms, as for `CC(=O)CC(C)C` [SAR-39, 4-methyl-2-pentanone], the figure is 54%; as for `CC(C)CC(=O)/C=C/c1ccccc1O` [SAR-8, (E)-1-(2-hydroxyphenyl)-5-methylhex-1-en-3-one], 100%.

As for `O=C(/C=C/c1ccccc1)c1ccccc1` [SAR-2, Benzalacetophenone], in the assay on nematodes (J2's), the Average % immobility was 4%. `CC/C=C\CCC=O` [SAR-38, cis-4-heptenal] had an Average % immobility in the assay on nematodes (J2's) of 21%. Compound `C/C(=C\c1cccc(O)c1)C(=O)/C=C/c1cccc(O)c1` [SAR-21, (1E,4E)-1,5-bis(3-hydroxyphenyl)-2-methylpenta-1,4-dien-3-one] yielded an Average % immobility in the assay with nematodes (J2's) of 12%.

Take `CC(=O)/C=C/C=C/c1ccccc1` [SAR-4, (3E,5E)-6-phenylhexa-3,5-dien-2-one]: the Average % immobility with nematodes (J2's) is 97%. `O=C(/C=C/Cc1ccccc1)c1ccccc1` [SAR-19, (E)-1,4-diphenylbut-2-en-1-one] gave an Average % immobility in the assay on nematodes (J2's) of 64%.

`CC(=O)/C=C/c1ccc(O)cc1` [SAR-28, (E)-4-(4-hydroxyphenyl)but-3-en-2-one] came in with an Average % immobility in the assay on nematodes (J2's) of 78%.

`CC(C)CC(=O)/C=C/c1ccccc1` [SAR-25, (E)-5-methyl-1-phenylhex-1-en-3-one] showed an Average % immobility in the assay on nematodes (J2's) of 79%. On the same count and under the same terms, next, `CC(C)CC(=O)/C=C/c1cccc(O)c1` [SAR-27, (E)-1-(3-hydroxyphenyl)-5-methylhex-1-en-3-one]: 78%; `O=C(/C=C/c1cccc(O)c1)/C=C/c1cccc(O)c1` [SAR-18, (1E,4E)-1,5-bis(3-hydroxyphenyl) penta-1,4-dien-3-one]: 23%; `CC(=O)/C=C/c1ccccc1O` [SAR-3, (E)-4-(2-hydroxyphenyl)but-3-en-2-one]: 95%.

Compound `CCC(C)=O` [SAR-43, 2-butanone] yielded an Average % immobility in the assay with nematodes (J2's) of 21%. As to `O=Cc1ccc(O)cc1` [SAR-30, 4-hydroxybenzaldehyde], the Average % immobility in the assay on nematodes (J2's) was 58%. In turn, `O=Cc1ccccc1O` [SAR-31, 2-hydroxybenzaldehyde] displayed an Average % immobility with nematodes (J2's) of 58%. Compound `O=Cc1ccccc1OCC(=O)c1ccccc1` [SAR-13, 2-(2′-phenyl-2-oxoethoxy) benzaldehyde] yielded an Average % immobility in the assay with nematodes (J2's) of 74%. Consider `CCC(=O)/C=C/c1ccccc1O` [SAR-6, (E)-1-(2-hydroxyphenyl)pent-1-en-3-one], for which the Average % immobility with nematodes (J2's) is listed as 98%. Same read-out and setting: as for `COc1ccccc1C=O` [SAR-42, o-anisaldehyde], the figure is 8%; as for `O=C(CBr)c1ccccc1` [SAR-26, 2-bromo-1-phenylethanone], 50%. On the same count and under the same terms, next, `CCCCCCCCC1CCC(=O)O1` (stereo not shown) [SAR-33, γ-dodecalactone]: 63%. The same measure, in the same setting: as for `CC(=O)CC(C)(C)O` [SAR-41, 4-hydroxy-4-methylpentanone], the figure is 21%. In the assay on nematodes (J2's), `O=C(/C=C/C=C/c1ccccc1)c1ccccc1` [SAR-5, (2E,4E)-1,5-diphenylpenta-2,4-dien-1-one] displayed an Average % immobility of 98%. The same measure, in the same setting: as for `CC(=O)/C=C/c1cccc(O)c1` [SAR-11, (E)-4-(3-hydroxyphenyl)but-3-en-2-one], the figure is 99%; as for `CCC(=O)/C=C/c1ccccc1` [SAR-23, (E)-1-phenylpent-1-en-3-one], 80%.

Compound `O=C(/C=C/Cc1ccccc1)c1ccc(O)cc1` [SAR-20, (E)-1-(4-hydroxyphenyl)-4-phenylbut-2-en-1-one] registered an Average % immobility in the assay with nematodes (J2's) of 28%. On the same count and under the same terms, as for `CCCCCC(C)=O` [SAR-36, 2-heptanone], the figure is 21%. Still for that read-out and setting: as for `O=C(/C=C/c1ccccc1O)c1ccccc1` [SAR-7, (E)-3-(2-hydroxyphenyl)-1-phenylprop-2-en-1-one], the figure is 99%; as for `O=C(/C=C/c1ccc(O)cc1)c1ccccc1` [SAR-9, (E)-3-(4-hydroxyphenyl)-1-phenylprop-2-en-1-one], 100%; as for `CC(=O)/C(C)=C/c1ccc(O)cc1` [SAR-24, (E)-4-(4-hydroxyphenyl)-3-methylbut-3-en-2-one], 80%. Compound `O=Cc1ccccc1` [SAR-32, Benzaldehyde] displayed an Average % immobility in the assay on nematodes (J2's) of 65%.
